Data taken from PubChem BioAssay (NCI).
Several values for one entry are separate records, joined by “and”; a condition that tells them apart may be missing. Equal entries are not always repeated.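 Results reflect a 48-hour exposure of cells in 96-well plates to compound at five concentrations. At the GI50, growth is halved. At the TGI there is no net growth.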

Experiments:
Assay in all cases: DTP human tumour cell line panel, 48 h
HCC-2998 colon = system: HCC-2998 colon
U251 CNS = system: U251 CNS
HCT-116 colon = system: HCT-116 colon
NCI-H522 lung = system: NCI-H522 lung
KM12 colon = system: KM12 colon
SW-620 colon = system: SW-620 colon
HT29 colon = system: HT29 colon
DU-145 prostate = system: DU-145 prostate
DMS 273 small cell lung = system: DMS 273 small cell lung
DLD-1 colon = system: DLD-1 colon

C=C(CCC(=O)N(CCc1c[nH]c2ccccc12)C(=O)c1ccccc1CSCC)C(=O)OC
TGI (HCC-2998 colon): > 95.4 µM | TGI (U251 CNS): > 100 µM | TGI (HCT-116 colon): > 100 µM | TGI (NCI-H522 lung): > 100 µM | TGI (KM12 colon): > 100 µM | TGI (SW-620 colon): > 100 µM | TGI (HT29 colon): > 100 µM | TGI (DU-145 prostate): > 100 µM

Nc1ncnc2c1ncn2CCCNO
TGI (HCC-2998 colon): > 100 µM | TGI (U251 CNS): > 100 µM | TGI (HCT-116 colon): > 100 µM | TGI (NCI-H522 lung): > 100 µM | TGI (KM12 colon): > 100 µM | TGI (SW-620 colon): > 100 µM | TGI (HT29 colon): > 100 µM | TGI (DU-145 prostate): > 100 µM

Cc1c(C)c2c(c(N)c1C#N)C(=O)N(NC(=S)Nc1ccccc1)C2=O
TGI (HCC-2998 colon): > 100 µM | TGI (U251 CNS): > 100 µM | TGI (HCT-116 colon): > 100 µM | TGI (NCI-H522 lung): > 100 µM | TGI (KM12 colon): > 100 µM | TGI (SW-620 colon): > 100 µM | TGI (HT29 colon): > 100 µM | TGI (DU-145 prostate): > 100 µM

FC(F)(Sc1ncccn1)c1nc2ccccc2o1
TGI (HCC-2998 colon): > 100 µM | TGI (U251 CNS): > 100 µM | TGI (HCT-116 colon): > 100 µM | TGI (NCI-H522 lung): > 100 µM | TGI (KM12 colon): > 100 µM | TGI (SW-620 colon): > 100 µM | TGI (HT29 colon): > 100 µM | TGI (DU-145 prostate): > 100 µM

C=C(C)C1CCC2(C)C1CCC1(C)C2CCC2C3(C)C4OC(OC4=O)C(C)(C)C3CCC21C (configuration not stated)
TGI (HCC-2998 colon): > 100 µM | TGI (U251 CNS): > 100 µM | TGI (HCT-116 colon): > 100 µM | TGI (NCI-H522 lung): 53.6 µM | TGI (KM12 colon): > 100 µM | TGI (SW-620 colon): > 100 µM | TGI (HT29 colon): > 100 µM | TGI (DU-145 prostate): > 100 µM

CC1(O)CC2C(CC1SCc1ccccc1)C2(C)C (configuration not stated)
GI50 (HCC-2998 colon): 24.1 µM and > 100 µM | TGI (HCC-2998 colon): 50 µM and > 100 µM | TGI (DMS 273 small cell lung): 33.1 µM and 29.2 µM | TGI (U251 CNS): 44.7 µM and 29.7 µM | TGI (HCT-116 colon): 47.9 µM and 30.2 µM | TGI (NCI-H522 lung): 29.1 µM and 25.2 µM | TGI (KM12 colon): 50.8 µM and 34.6 µM | TGI (SW-620 colon): 46.8 µM and 32.9 µM | TGI (HT29 colon): 49.1 µM and 29.9 µM | GI50 (DLD-1 colon): 42.4 µM and 16.6 µM | TGI (DLD-1 colon): > 100 µM and 30.2 µM

Fc1nc(Sc2ncnc3nc[nH]c23)nc(-c2c3ccccc3c3sc4ccccc4n23)n1
TGI (HCC-2998 colon): > 100 µM | TGI (U251 CNS): > 100 µM | TGI (HCT-116 colon): > 100 µM | TGI (NCI-H522 lung): > 100 µM | TGI (KM12 colon): > 100 µM | TGI (SW-620 colon): > 100 µM | TGI (HT29 colon): > 100 µM | TGI (DU-145 prostate): > 100 µM

Nc1ccc2c3c1cccc3c(=O)n1c3ccc(Cc4ccc5c(c4)nc4c6ccc(N)c7cccc(c(=O)n54)c76)cc3nc21
TGI (HCC-2998 colon): > 100 µM | TGI (U251 CNS): > 100 µM | TGI (HCT-116 colon): > 100 µM | TGI (NCI-H522 lung): > 100 µM | TGI (KM12 colon): > 100 µM | TGI (SW-620 colon): > 100 µM | TGI (HT29 colon): > 100 µM | TGI (DU-145 prostate): > 100 µM

COc1ccc(Nc2nc(N)c(C(=O)c3ccco3)s2)cc1
TGI (HCC-2998 colon): 71.9 µM | TGI (U251 CNS): > 100 µM | TGI (HCT-116 colon): > 66.4 µM | TGI (NCI-H522 lung): > 100 µM | TGI (KM12 colon): > 100 µM | TGI (SW-620 colon): > 100 µM | TGI (HT29 colon): > 100 µM | TGI (DU-145 prostate): > 100 µM

N#CC(C#N)=C/C=C/c1ccccc1[N+](=O)[O-]
TGI (HCC-2998 colon): > 10 µM | TGI (U251 CNS): > 10 µM | TGI (HCT-116 colon): 3.67 µM | TGI (NCI-H522 lung): > 10 µM | TGI (KM12 colon): > 10 µM | TGI (SW-620 colon): > 10 µM | TGI (HT29 colon): > 10 µM | TGI (DU-145 prostate): > 10 µM

Fc1cccc(C2ON=C(c3ccccc3)N2C23CC4CC(CC(C4)C2)C3)c1 (configuration not stated)
TGI (HCC-2998 colon): > 10 µM | TGI (U251 CNS): > 10 µM | TGI (HCT-116 colon): > 10 µM | TGI (NCI-H522 lung): > 10 µM | TGI (KM12 colon): > 10 µM | TGI (SW-620 colon): > 10 µM | TGI (HT29 colon): > 10 µM | TGI (DU-145 prostate): > 10 µM

CN1CCN(Cc2ccc(C(=S)Nc3ccccc3)s2)CC1
TGI (HCC-2998 colon): > 100 µM | TGI (U251 CNS): > 100 µM | TGI (HCT-116 colon): > 100 µM | TGI (NCI-H522 lung): > 100 µM | TGI (KM12 colon): > 100 µM | TGI (SW-620 colon): > 100 µM | TGI (HT29 colon): 47.1 µM | TGI (DU-145 prostate): > 100 µM

Cc1cc(C)n(C(C)(C(=O)Cc2ccccc2)n2nc(C)cc2C)n1
TGI (HCC-2998 colon): > 100 µM | TGI (U251 CNS): > 100 µM | TGI (HCT-116 colon): > 100 µM | TGI (NCI-H522 lung): > 100 µM | TGI (KM12 colon): > 100 µM | TGI (SW-620 colon): > 100 µM | TGI (HT29 colon): > 100 µM | TGI (DU-145 prostate): > 100 µM

Cc1cc(C)c(C2=NO[C@@H]3[C@H]2C(=O)C=C2N(Cc4ccccc4)CCO[C@@]23O)c(C)c1
TGI (HCC-2998 colon): > 100 µM | TGI (DMS 273 small cell lung): > 100 µM | TGI (U251 CNS): > 100 µM | TGI (HCT-116 colon): > 100 µM | TGI (NCI-H522 lung): > 100 µM | TGI (KM12 colon): > 100 µM | TGI (SW-620 colon): > 100 µM | TGI (HT29 colon): > 100 µM | TGI (DLD-1 colon): > 100 µM

COc1cc2c(cc1OC)C(C1CC1)ON(C)CC2 (configuration not stated)
TGI (HCC-2998 colon): > 100 µM | TGI (U251 CNS): > 100 µM | TGI (HCT-116 colon): > 100 µM | TGI (NCI-H522 lung): > 100 µM | TGI (KM12 colon): > 100 µM | TGI (SW-620 colon): > 100 µM | TGI (HT29 colon): > 100 µM | TGI (DU-145 prostate): > 100 µM

Clc1ccc(-c2nn3c(COc4ccc(OCc5nnc6sc(-c7ccc(Cl)cc7)nn56)c(Cl)c4)nnc3s2)cc1
TGI (HCC-2998 colon): 44.9 µM | TGI (U251 CNS): 54.7 µM | TGI (HCT-116 colon): > 100 µM | TGI (NCI-H522 lung): 37.4 µM | TGI (KM12 colon): > 100 µM | TGI (SW-620 colon): 74.1 µM | TGI (HT29 colon): 36.7 µM | TGI (DU-145 prostate): > 100 µM

CN(Cc1ccccc1)C(=S)S
TGI (HCC-2998 colon): > 100 µM | TGI (U251 CNS): > 100 µM | TGI (HCT-116 colon): 39.6 µM | TGI (NCI-H522 lung): > 100 µM | TGI (KM12 colon): > 100 µM | TGI (SW-620 colon): > 100 µM | TGI (HT29 colon): > 100 µM | TGI (DU-145 prostate): > 100 µM

CCOC(=O)C(NC(=O)c1ccccc1)(Nc1ccc(S(=O)(=O)Nc2cc(C)on2)cc1)C(F)(F)F (configuration not stated)
TGI (HCC-2998 colon): > 100 µM | TGI (U251 CNS): > 100 µM | TGI (HCT-116 colon): > 100 µM | TGI (NCI-H522 lung): > 100 µM | TGI (KM12 colon): > 100 µM | TGI (SW-620 colon): > 100 µM | TGI (HT29 colon): > 100 µM | TGI (DU-145 prostate): > 100 µM

CCCCCCCC(=O)OC[n+]1cccc(-c2c(COC(=O)NC(C)C)c(COC(=O)NC(C)C)c3n2CCC3)c1
TGI (HCC-2998 colon): > 100 µM | TGI (U251 CNS): > 100 µM | TGI (HCT-116 colon): > 100 µM | TGI (NCI-H522 lung): > 100 µM | TGI (KM12 colon): > 100 µM | TGI (SW-620 colon): > 100 µM | TGI (HT29 colon): > 100 µM | TGI (DU-145 prostate): > 100 µM

CCn1c(-c2cc3ccccc3cc2OC(C)=O)n[nH]c1=S
TGI (HCC-2998 colon): 38.5 µM | TGI (U251 CNS): 51.4 µM | TGI (HCT-116 colon): 41.7 µM | TGI (NCI-H522 lung): 38.8 µM | TGI (KM12 colon): > 100 µM | TGI (SW-620 colon): > 100 µM | TGI (HT29 colon): > 100 µM | TGI (DU-145 prostate): 81.1 µM

CCOC1OC(C)(C=C(C#N)C#N)CCC1C (configuration not stated)
TGI (HCC-2998 colon): > 74.3 µM | TGI (U251 CNS): > 100 µM | TGI (HCT-116 colon): > 100 µM | TGI (NCI-H522 lung): 39.5 µM | TGI (KM12 colon): > 100 µM | TGI (SW-620 colon): > 100 µM | TGI (HT29 colon): > 93.9 µM | TGI (DU-145 prostate): > 100 µM
